Assay results taken from patent publication US7378446B2, “Compound having anti-HCV activity and process for producing the same” (Chugai Seiyaku Kabushiki Kaisha, priority 2003, dated 2008).

Columns and labels:
in vitro = type: cell-based; settings: human; replicon cells, 3 days culture with compound, Cell Counting Kit 8, absorbance 450 nm; read-out: Cytotoxicity CC50
[1] = tested on: Firefly luciferase HCV replicon cells (3-1); assay: Replicon assay (firefly luciferase HCV replicon); type: cell-based; settings: Hepatitis C virus, 72 h; Huh7-derived luciferase HCV replicon cells, 3 days culture with compound, Steady-Glo luminescence

## CCC#CCOc1ccc(C[C@H](NC(=O)[C@@H](/C=C/CCCCCCC(=O)CCCCCCC)[C@@](O)(CC(=O)O)C(=O)O)C(=O)O)cc1 [Compound 109]
In vitro
  CC50: > 1000 nM
[1]
  IC50: 2 nM

## CCCCCCCC#CCOc1ccc(C[C@H](NC(=O)[C@@H](/C=C/CCCCCCC(=O)CCCCCCC)[C@@](O)(CC(=O)O)C(=O)O)C(=O)O)cc1 [Compound 110]
In vitro
  CC50: > 1000 nM
[1]
  IC50: 5 nM

## CCCCCCCC(=O)CCCCCC/C=C/[C@H](C(=O)N[C@@H](Cc1ccc(OCC#CC#CC(C)(C)C)cc1)C(=O)O)[C@@](O)(CC(=O)O)C(=O)O [Compound 111]
In vitro
  CC50: > 1000 nM
[1]
  IC50: 6 nM
